From patent US12421253B2 (Mirati Therapeutics, Inc., priority 2020, dated 2025)

Experiments:
[1] = biological target: T1, KRas^G12V (Homo sapiens, UniProt P01116, G12V); assay: KRas binding assay (TR-FRET displacement of Cy5 labelled tracer)
T1 construct: […]; biotin (biotinylated); purchased Accelegan Inc

[2] = biological target: T2, KRas^G12D (Homo sapiens, UniProt P01116, G12D); assay: as above
T2 construct: […]; biotin (biotinylated); purchased Accelegan Inc

[3] = tested on: H727 cells, pERK; assay: Inhibition of KRas phosphorylation of ERK (Cisbio HTRF Advanced pERK assay); assay type: cell-based; details: Homo sapiens, NCI-H727, 3 h, read-out: Inhibition (HTRF IC50 nM) of KRas-mediated Phosphorylation of ERK, H727
Method: (§1) Inhibition of KRas Phosphorylation of ERK (HTRF) by Exemplary Compounds of Formula (I)
(§2) Cisbio HTRF Advanced pERK Assay Catalog #64AERPEH
(§3) • Day 1: Seed 6,000 cells/well −25 μl/well in 384-well white solid bottom plate; RPM1_10% FBS. […] To harvest cells from flask using 0.05% Trypsin/EDTA solution. Add 10 mL of media to stop trypsinizing. Pipette the cells into a conical bottom 50 mL centrifuge tube and centrifuge 5 min×1000 rpm. • 2. Re-suspend the cell pellet in media, take a cell count, and then adjust the cell density using fresh media. • 3. Seed 6,000 cells into cell culture plate with […]. The • 4. Incubate cell plate overnight in a 37° C., 5% CO2 incubator. Compound Titrations • 1. Use Tecan to complete the compound addition. Compounds start from 10 uM top, 3-fold dilution, and 10 doses. The final DMSO concentration is 0.8%. Dispensed 0.2 uM Trametinib as Min control. • 2. Incubate cell plate for 3 hrs in the incubator. Detection with Cisbio pERK HTRF Kit • 1. Dilute 1 volume of 4× lysis buffer with 3 volumes of deionized water. Then, add 100× the blocking reagent. Keep lysis buffer on the ice. • 2. At the end of the compound treatment, flick-off the media. • 3. Add 35 μL of lysis buffer per well using a Multidrop Combi. Then place on a plate agitator shaking at 300 rpm at 4° C. for 40 mins. • 4. Make up the HTRF antibody buffer. For each assay plate, mix 50 μL of d2-conjugate antibody with 950 μL of detection buffer. Similarly, mix 50 μL of Cryptate antibody with 950 μL of detection buffer. Then mix the two diluted antibodies together. • 5. Dispense 3.4 μL the antibody buffer to wells of an empty assay plate. Seal the plate and centrifuge plate 30 sec×1000 rpm. • 6. At the end of the 4° C. lysis, centrifuge the lysate plates 3 mins×1500 rpm. • 7. Use the Bravo to transfer 13.6 μL of lysate from cell culture plate to assay plate. Then incubate assay plate for 2 hrs at room temperature. • 8. At the end of incubation, read plate on the Envision after centrifuging plate 30 sec×1000 rpm.

[4] = tested on: MKN1 cells, pERK; assay: as above; assay type: cell-based; details: Homo sapiens, MKN-1, 3 h, read-out: Inhibition (HTRF IC50 nM) of KRas-mediated Phosphorylation of ERK, MKN1
Method: as §1, §2, §3

[5] = tested on: ASPC1 cells, pERK; assay: as above; assay type: cell-based; details: Homo sapiens, ASPC1, 3 h, AsPC-1 cells, read-out: Inhibition (HTRF IC50 nM) of KRas-mediated Phosphorylation of ERK, AsPC-1
Method: as §1, §2, §3

[6] = tested on: PSN1 cells, pERK; assay: as above; assay type: cell-based; details: Homo sapiens, PSN1, 3 h, read-out: Inhibition (HTRF IC50 nM) of KRas-mediated Phosphorylation of ERK, PSN1
Method: as §1, §2, §3

[7] = biological target: T3, KRas^G12R (Homo sapiens, UniProt P01116, G12R); assay: KRas binding assay (TR-FRET displacement of Cy5 labelled tracer)
T3 construct: […]; biotin (biotinylated); purchased Accelegan Inc
T3 sequence (P01116 1-169 isoform P01116-2 G12R): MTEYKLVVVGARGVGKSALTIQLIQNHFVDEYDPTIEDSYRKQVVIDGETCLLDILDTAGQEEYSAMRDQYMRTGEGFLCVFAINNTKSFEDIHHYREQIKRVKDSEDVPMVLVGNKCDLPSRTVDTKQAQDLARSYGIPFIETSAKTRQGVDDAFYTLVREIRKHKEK

T2 sequence (P01116 1-169 isoform P01116-2 G12D): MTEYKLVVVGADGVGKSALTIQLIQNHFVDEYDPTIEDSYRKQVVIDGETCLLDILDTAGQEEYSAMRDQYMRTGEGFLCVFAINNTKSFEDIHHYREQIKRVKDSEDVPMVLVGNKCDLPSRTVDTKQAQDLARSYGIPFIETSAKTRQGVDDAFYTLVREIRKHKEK
T1 sequence (P01116 1-169 isoform P01116-2 G12V): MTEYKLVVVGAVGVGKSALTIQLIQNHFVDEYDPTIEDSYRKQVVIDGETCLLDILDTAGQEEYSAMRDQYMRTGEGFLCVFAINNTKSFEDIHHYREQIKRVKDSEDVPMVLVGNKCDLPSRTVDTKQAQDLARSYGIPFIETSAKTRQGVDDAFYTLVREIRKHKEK

Row | SMILES | IC50 [1] [nM] | IC50 [2] [nM] | IC50 [3] [nM] | IC50 [4] [nM] | IC50 [5] [nM] | IC50 [6] [nM] | IC50 [7] [nM]
1 | CCc1c(F)ccc2cc(O)cc(N3CCc4c(nc(OC[C@@]56CCCN5C[C@H](F)C6)nc4N4C[C@H]5CC[C@@H](O)[C@H]5C4)C3)c12 [Example 185, (3aR,4R,6aS)-2-(7-(8-ethyl-7-fluoro-3-hydroxynaphthalen-1-yl)-2-(((2R,7aS)-2-fluorotetrahydro-1H-pyrrolizin-7a(5H)-yl)methoxy)-5,6,7,8-tetrahydropyrido[3,4-d]pyrimidin-4-yl)octahydrocyclopenta[c]pyrrol-4-ol] | 52 | 143 | 3720 | 1540 | 5120 | ≥ 10000 | 46
2 | CN1CCC[C@H]1COc1nc2c(c(N3CCOCC(C)(O)C3)n1)CCN(c1cccc3cccc(Cl)c13)C2 (stereo partly drawn) [Example 205, 4-[7-(8-chloro-1-naphthyl)-2-[[(2S)-1-methylpyrrolidin-2-yl]methoxy]-6,8-dihydro-5H-pyrido[3,4-d]pyrimidin-4-yl]-6-methyl-1,4-oxazepan-6-ol] | 4700 | 4690 | ≥ 10000 |  | ≥ 10000 |  | 6430
3 | CN1CCC[C@H]1COc1nc2c(c(N3C[C@@H]4C(=O)NC(=O)[C@@H]4C3)n1)CCN(c1cccc3cccc(Cl)c13)C2 [Example 206, (3aS,6aR)-5-[7-(8-chloro-1-naphthyl)-2-[[(2S)-1-methylpyrrolidin-2-yl]methoxy]-6,8-dihydro-5H-pyrido[3,4-d]pyrimidin-4-yl]-3a,4,6,6a-tetrahydropyrrolo[3,4-c]pyrrole-1,3-dione] | 833 | 932 | ≥ 10000 |  | ≥ 10000 |  | 1620
4 | CN1CCC[C@H]1COc1nc2c(c(N3CCCC4(CNC(=O)N4)C3)n1)CCN(c1cccc3cccc(Cl)c13)C2 (stereo partly drawn) [Example 210, 7-(7-(8-chloronaphthalen-1-yl)-2-(((S)-1-methylpyrrolidin-2-yl)methoxy)-5,6,7,8-tetrahydropyrido[3,4-d]pyrimidin-4-yl)-1,3,7-triazaspiro[4.5]decan-2-one] | 497 | 579 | ≥ 10000 |  | ≥ 10000 |  | 699
5 | CN1CCC[C@H]1COc1nc2c(c(N3CCCC4(CC(=O)N4)C3)n1)CCN(c1cccc3cccc(Cl)c13)C2 (stereo partly drawn) [Example 207, 8-[7-(8-chloro-1-naphthyl)-2-[[(2S)-1-methylpyrrolidin-2-yl]methoxy]-6,8-dihydro-5H-pyrido[3,4-d]pyrimidin-4-yl]-1,8-diazaspiro[3.5]nonan-2-one] | 404 | 765 | ≥ 10000 |  | ≥ 10000 |  | 553
6 | CN1CCC[C@H]1COc1nc2c(c(N3CCCC4(CNS(=O)(=O)N4)C3)n1)CCN(c1cccc3cccc(Cl)c13)C2 (stereo partly drawn) [Example 208, 9-[7-(8-chloro-1-naphthyl)-2-[[(2S)-1-methylpyrrolidin-2-yl]methoxy]-6,8-dihydro-5H-pyrido[3,4-d]pyrimidin-4-yl]-2λ6-thia-1,3,9-triazaspiro[4.5]decane 2,2-dioxide] | 197 | 136 | 6940 |  | 4050 |  | 350
7 | CN(C)C(=O)c1cc2n(n1)CCCN(c1nc(OC[C@@H]3CCCN3C)nc3c1CCN(c1cccc4cccc(Cl)c14)C3)C2 [Example 209, (S)-5-(7-(8-chloronaphthalen-1-yl)-2-((1-methylpyrrolidin-2-yl)methoxy)-5,6,7,8-tetrahydropyrido[3,4-d]pyrimidin-4-yl)-N,N-dimethyl-5,6,7,8-tetrahydro-4H-pyrazolo[1,5-a][1,4]diazepine-2-carboxamide] | 1900 | 1120 | 8520 |  | 7200 |  | 4140
8 | Cc1cc2[nH]ncc2c(N2CCc3c(nc(OCC45CCCN4CCC5)nc3N3CCC[C@@](C)(O)C3)C2)c1C [Example 15, (R)-1-(7-(5,6-dimethyl-1H-indazol-4-yl)-2-((hexahydro-1H-pyrrolizin-7a-yl)methoxy)-5,6,7,8-tetrahydropyrido[3,4-d]pyrimidin-4-yl)-3-methylpiperidin-3-ol] | 103 | 126 | 3190 |  | 1110 |  | 144

Now those with a lower IC50 [1], led by results:

Row | IC50 [1] [nM] | IC50 [2] [nM] | IC50 [3] [nM] | IC50 [4] [nM] | IC50 [5] [nM] | IC50 [6] [nM] | IC50 [7] [nM] | SMILES
9 | 38 | 101 | 2880 |  | 4890 |  | 34 | CN1CCC[C@H]1COc1nc2c(c(N3CCCC4(C3)NC(=O)NC4=O)n1)CCN(c1cccc3cccc(Cl)c13)C2 (stereo partly drawn) [Example 211, 9-[7-(8-chloro-1-naphthyl)-2-[[(2S)-1-methylpyrrolidin-2-yl]methoxy]-6,8-dihydro-5H-pyrido[3,4-d]pyrimidin-4-yl]-1,3,9-triazaspiro[4.5]decane-2,4-dione]
10 | ≤ 2 | ≤ 2 | 2670 |  | 4360 |  | ≤ 2 | CCc1c(F)ccc2cc(O)cc(N3CCc4c(nc(OC[C@@]56CCCN5C[C@H](F)C6)nc4N4C[C@H](O)C[C@@H](C(N)=O)C4)C3)c12 [Example 186, (3R,5R)-1-(7-(8-ethyl-7-fluoro-3-hydroxynaphthalen-1-yl)-2-(((2R,7aS)-2-fluorohexahydro-1H-pyrrolizin-7a-yl)methoxy)-5,6,7,8-tetrahydropyrido[3,4-d]pyrimidin-4-yl)-5-hydroxypiperidine-3-carboxamide]
11 | 7 | 37 |  |  |  | 5630 | 7 | Oc1cc(N2CCc3c(nc(OC[C@@]45CCCN4C[C@H](F)C5)nc3N3CC4CC(O)CC3C4)C2)c2c(Cl)c(F)ccc2c1 (single isomer, unassigned) [Example 76]
12 | 3 | 11 |  |  |  | 6500 | 3 | Oc1cc(N2CCc3c(nc(OC[C@@]45CCCN4C[C@H](F)C5)nc3N3CC4CC(O)CC3C4)C2)c2c(Br)c(F)ccc2c1 (single isomer, unassigned) [Example 213]
13 | 6 | 6 | 1670 |  | 1530 |  | 9 | C[C@@]1(O)CCCN(c2nc(OCC34CCCN3CCC4)nc3c2CCN(c2cc(O)cc(Cl)c2C2CC2)C3)C1 [Example 204, (R)-1-(7-(3-chloro-2-cyclopropyl-5-hydroxyphenyl)-2-((hexahydro-1H-pyrrolizin-7a-yl)methoxy)-5,6,7,8-tetrahydropyrido[3,4-d]pyrimidin-4-yl)-3-methylpiperidin-3-ol]
14 | ≤ 2 | 4 | 1320 |  | 5330 |  | ≤ 2 | CCc1c(F)ccc2cc(O)cc(N3CCc4c(nc(OC[C@@]56CCCN5C[C@H](F)C6)nc4N4C[C@H](O)C[C@H](C(N)=O)C4)C3)c12 [Example 187, (3S,5R)-1-(7-(8-ethyl-7-fluoro-3-hydroxynaphthalen-1-yl)-2-(((2R,7aS)-2-fluorohexahydro-1H-pyrrolizin-7a-yl)methoxy)-5,6,7,8-tetrahydropyrido[3,4-d]pyrimidin-4-yl)-5-hydroxypiperidine-3-carboxamide]
15 | 11 | 78 | 984 |  | 5940 |  | ≤ 2 | CCc1c(F)ccc2cc(O)cc(N3CCc4c(nc(OC[C@@]56CCCN5C[C@H](F)C6)nc4N4CC5CCC(C4)O5)C3)c12 [Example 176, 4-(4-(8-oxa-3-azabicyclo[3.2.1]octan-3-yl)-2-(((2R,7aS)-2-fluorotetrahydro-1H-pyrrolizin-7a(5H)-yl)methoxy)-5,8-dihydropyrido[3,4-d]pyrimidin-7(6H)-yl)-5-ethyl-6-fluoronaphthalen-2-ol]
